Results as given in ChEMBL document CHEMBL5120752, “Galangin 3-benzyl-5-methylether derivatives function as an adiponectin synthesis-promoting peroxisome proliferator-activated receptor γ partial agonist” (Bioorg Med Chem, 2022).
Activity calls are given as the source filed them. The rule behind the calls is not given here.

What was measured:
Mesenchymal stem cells [1] = assay: Induction of adiponectin synthesis in human differentiated BMMSC cells assessed as fold increase in adiponectin level at 10 uM measured after 5 days in the presence of IDX induction medium by ELISA; assay type: functional; conditions: time 5 day
Mesenchymal stem cells [2] = assay: Induction of adiponectin synthesis in human differentiated BMMSC cells at 10 uM measured after 5 days in the presence of IDX induction medium by ELISA; assay type: functional, cell-based; conditions: time 5.0 day
Mesenchymal stem cells [3] = assay: Upregulation of adiponectin mRNA expression in human BMMSC cells at 10 uM measured after 3 days by qRT-PCR analysis; assay type: functional, cell-based; conditions: time 3.0 day
Mesenchymal stem cells [4] = assay: Upregulation of PPARgamma mRNA expression in human BMMSC cells at 10 uM measured after 3 days by qRT-PCR analysis; assay type: functional, cell-based; conditions: time 3.0 day
Mesenchymal stem cells [5] = assay: Induction of adiponectin synthesis in human differentiated BMMSC cells assessed as lipid accumulation at 10 uM measured after 5 days in the presence of IDX induction medium by Oil red O staining based inverted phase contrast microscope analysis; assay type: functional, cell-based; conditions: time 5.0 day
Mesenchymal stem cells [6] = assay: Upregulation of FABP4 mRNA expression in human BMMSC cells at 10 uM measured after 3 days by qRT-PCR analysis; assay type: functional, cell-based; conditions: time 3.0 day
[7] = target: T1, Peroxisome proliferator-activated receptor gamma (Homo sapiens, UniProt P37231); assay: Binding affinity to PPARgamma (unknown origin) assessed as inhibition constant by Lanthascreen TR-FRET assay relative to control
T1 sequence (P37231 whole entry): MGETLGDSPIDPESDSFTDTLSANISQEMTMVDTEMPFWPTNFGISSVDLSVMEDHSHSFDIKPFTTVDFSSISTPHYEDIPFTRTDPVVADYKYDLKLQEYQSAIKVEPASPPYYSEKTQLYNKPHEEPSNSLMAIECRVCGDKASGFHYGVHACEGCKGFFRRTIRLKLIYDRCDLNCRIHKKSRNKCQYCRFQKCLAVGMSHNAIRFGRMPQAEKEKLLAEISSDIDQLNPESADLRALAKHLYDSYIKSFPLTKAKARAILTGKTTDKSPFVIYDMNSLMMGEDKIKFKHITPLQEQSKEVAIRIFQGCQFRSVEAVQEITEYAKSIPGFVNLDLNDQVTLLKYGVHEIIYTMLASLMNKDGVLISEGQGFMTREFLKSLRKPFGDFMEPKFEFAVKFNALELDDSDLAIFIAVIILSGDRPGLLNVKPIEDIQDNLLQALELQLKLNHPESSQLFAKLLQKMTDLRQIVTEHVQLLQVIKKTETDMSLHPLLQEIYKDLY

[8] = target: Estrogen receptor beta (Homo sapiens) (UniProt Q92731); assay: Binding affinity to ERbeta (unknown origin) at 10 uM by Lanthascreen TR-FRET assay relative to control
Estrogen receptor beta (Homo sapiens), sequence (Q92731 whole entry): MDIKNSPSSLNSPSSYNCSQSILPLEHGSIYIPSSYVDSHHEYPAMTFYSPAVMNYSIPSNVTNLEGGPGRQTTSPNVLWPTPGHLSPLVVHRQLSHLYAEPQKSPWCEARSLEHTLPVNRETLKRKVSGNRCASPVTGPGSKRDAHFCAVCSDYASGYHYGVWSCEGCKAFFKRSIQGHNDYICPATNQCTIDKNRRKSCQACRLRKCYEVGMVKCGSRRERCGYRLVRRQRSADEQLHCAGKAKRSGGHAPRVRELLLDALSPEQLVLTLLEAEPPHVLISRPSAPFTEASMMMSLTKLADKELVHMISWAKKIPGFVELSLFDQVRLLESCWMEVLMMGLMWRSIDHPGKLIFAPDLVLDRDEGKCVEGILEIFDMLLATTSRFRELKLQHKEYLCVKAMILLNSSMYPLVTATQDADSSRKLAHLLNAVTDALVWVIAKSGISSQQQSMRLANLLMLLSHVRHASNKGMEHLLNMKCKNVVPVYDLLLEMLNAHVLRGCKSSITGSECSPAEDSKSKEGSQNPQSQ

Mesenchymal stem cells [9] = assay: Induction of adiponectin synthesis in human differentiated BMMSC cells measured after 5 days in the presence of IDX induction medium by ELISA; assay type: functional, cell-based; conditions: 120 h

Structure (SMILES)	fold change (FC) (Mesenchymal stem cells [1])	Activity (Mesenchymal stem cells [2])	Activity (Mesenchymal stem cells [3])	Activity (Mesenchymal stem cells [4])	Activity (Mesenchymal stem cells [5])	Activity (Mesenchymal stem cells [6])	Ki [7]	Activity [8]	EC50 (Mesenchymal stem cells [9])
COc1cc(OC(=O)c2ccccc2)cc2oc(-c3ccccc3)c(OCc3ccccc3)c(=O)c12	2.76	Active							
O=c1c(O)c(-c2ccccc2)oc2cc(O)cc(O)c12 [GALANGIN]		Active	Active	Active	Active	Active	5.6 µM	79.4%	
COc1cc(OC(=O)c2ccccc2)cc2oc(-c3ccccc3)c(O)c(=O)c12		Active							
COc1cc(O)c2c(=O)c(OCc3ccccc3)c(-c3ccccc3)oc2c1		Active							
COc1cc(O)cc2oc(-c3ccccc3)c(OCc3ccccc3)c(=O)c12	2.88	Active	Active	Active	Active	Active			14.9 µM
COc1cc(OC)c2c(=O)c(OCc3ccccc3)c(-c3ccccc3)oc2c1		Active	Active	Active	Active	Active			
